ChEMBL document CHEMBL1143442, “Inhibitors of the tyrosine kinase EphB4. Part 2: structure-based discovery and optimisation of 3,5-bis substituted anilinopyrimidines” (Bioorg Med Chem Lett, 2008)
pIC50: −log10 of the molar value.

Experiments:
Ephrin type-B receptor 4 [1] = target: T1, Ephrin type-B receptor 4 (Homo sapiens, UniProt P54760); assay: Inhibition of Myc-His-tagged EphB4 expressed in CHOK1 cells assessed as phosphorylation by ELISA; type: cell-based, CHO-K1
T1 sequence (P54760 whole entry): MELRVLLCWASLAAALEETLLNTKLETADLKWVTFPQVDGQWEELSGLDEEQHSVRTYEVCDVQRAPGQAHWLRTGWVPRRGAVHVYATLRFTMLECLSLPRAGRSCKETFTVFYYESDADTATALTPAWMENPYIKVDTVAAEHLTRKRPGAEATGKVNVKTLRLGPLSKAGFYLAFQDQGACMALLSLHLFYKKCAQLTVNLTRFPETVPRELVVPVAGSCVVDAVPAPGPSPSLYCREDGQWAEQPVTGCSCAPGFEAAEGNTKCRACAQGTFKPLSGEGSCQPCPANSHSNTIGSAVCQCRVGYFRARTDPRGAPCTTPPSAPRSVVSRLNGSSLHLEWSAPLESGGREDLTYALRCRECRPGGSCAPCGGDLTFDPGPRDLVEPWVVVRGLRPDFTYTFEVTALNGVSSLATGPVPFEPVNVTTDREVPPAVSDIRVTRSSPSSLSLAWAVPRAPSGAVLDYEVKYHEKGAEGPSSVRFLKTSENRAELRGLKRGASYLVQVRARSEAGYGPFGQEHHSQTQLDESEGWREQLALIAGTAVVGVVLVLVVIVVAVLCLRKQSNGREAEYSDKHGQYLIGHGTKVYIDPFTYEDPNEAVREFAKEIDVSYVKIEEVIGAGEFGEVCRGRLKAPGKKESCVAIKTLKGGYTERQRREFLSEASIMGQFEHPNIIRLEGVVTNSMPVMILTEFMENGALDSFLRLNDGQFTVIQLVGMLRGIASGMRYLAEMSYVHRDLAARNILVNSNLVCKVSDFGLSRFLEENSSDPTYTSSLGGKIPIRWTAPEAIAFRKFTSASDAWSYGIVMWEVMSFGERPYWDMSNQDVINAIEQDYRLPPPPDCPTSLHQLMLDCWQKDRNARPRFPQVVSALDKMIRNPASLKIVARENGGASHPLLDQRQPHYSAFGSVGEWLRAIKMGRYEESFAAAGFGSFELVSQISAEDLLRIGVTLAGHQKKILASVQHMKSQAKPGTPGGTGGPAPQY

Ephrin type-B receptor 4 [2] = target: T1, Ephrin type-B receptor 4; assay: Inhibition of EphB4

Row | pIC50 (Ephrin type-B receptor 4 [1]) | pIC50 (Ephrin type-B receptor 4 [2]) | SMILES
1 | 6.76 | – | NS(=O)(=O)c1cccc(Nc2nccc(Nc3c(Cl)ccc4c3OCO4)n2)c1
2 | < 4.52 | 7.11 | NC(=O)c1cc(Nc2nccc(Nc3c(Cl)ccc4c3OCO4)n2)cc(C(N)=O)c1
3 | 4.85 | 9.00 | CS(=O)(=O)Nc1cc(Nc2nccc(Nc3c(Cl)ccc4c3OCO4)n2)cc(S(N)(=O)=O)c1
4 | 5.14 | 7.82 | CS(=O)(=O)Nc1cc(Nc2nccc(Nc3c(Cl)ccc4c3OCO4)n2)cc(NS(C)(=O)=O)c1
5 | 6.68 | 6.94 | CS(=O)(=O)c1cc(Nc2nccc(Nc3c(Cl)ccc4c3OCO4)n2)cc(S(C)(=O)=O)c1
6 | 4.65 | 7.64 | CS(=O)(=O)c1cc(Nc2nccc(Nc3c(Cl)ccc4c3OCO4)n2)cc(C(N)=O)c1
7 | 7.49 | 8.70 | CS(=O)(=O)c1cc(Nc2nccc(Nc3c(Cl)ccc4c3OCO4)n2)cc(N2CCOCC2)c1
8 | < 4.52 | 6.43 | CS(=O)(=O)Nc1cc(Nc2nccc(Nc3c(Cl)ccc4c3OCO4)n2)cc(C(N)=O)c1
9 | 6.05 | – | NC(=O)c1cccc(Nc2nccc(Nc3c(Cl)ccc4c3OCO4)n2)c1
10 | 6.05 | 7.89 | NC(=O)c1cc(Nc2nccc(Nc3c(Cl)ccc4c3OCO4)n2)cc(N2CCOCC2)c1
11 | 5.69 | 7.92 | CS(=O)(=O)Nc1cc(Nc2nccc(Nc3c(Cl)ccc4c3OCO4)n2)cc(S(C)(=O)=O)c1
12 | 6.77 | 8.70 | CS(=O)(=O)Nc1cc(Nc2nccc(Nc3c(Cl)ccc4c3OCO4)n2)cc(N2CCOCC2)c1
